Three molecules from patent US20220177538A1, “CO-AGONISTS AT GLP-1 AND GIP RECEPTORS SUITABLE FOR ORAL DELIVERY” (Novo Nordisk A/S, priority 2020, published 2022) can be followed below.

The target in one series is T1, human GIP receptor (Homo sapiens, UniProt P48546).
T1 construct: expressed in transfected cells; host or cells: BHK (parent line BHKTS13), clone BHK CRE luc2P hGIPR
T1 sequence (P48546 22-466): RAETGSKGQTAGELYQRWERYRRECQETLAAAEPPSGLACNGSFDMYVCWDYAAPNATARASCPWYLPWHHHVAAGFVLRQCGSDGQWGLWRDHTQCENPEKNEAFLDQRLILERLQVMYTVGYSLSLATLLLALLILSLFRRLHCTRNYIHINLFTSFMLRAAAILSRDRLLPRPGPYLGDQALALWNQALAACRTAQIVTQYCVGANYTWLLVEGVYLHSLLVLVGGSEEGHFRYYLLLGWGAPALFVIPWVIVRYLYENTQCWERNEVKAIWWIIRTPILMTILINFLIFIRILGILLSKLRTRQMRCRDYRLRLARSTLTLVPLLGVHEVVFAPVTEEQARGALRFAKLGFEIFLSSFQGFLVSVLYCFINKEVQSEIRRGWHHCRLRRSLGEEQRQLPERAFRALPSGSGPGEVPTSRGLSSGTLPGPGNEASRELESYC
In words: In vitro functional potency, CRE luciferase reporter, whole BHK cells (hGIPR). Particulars: BHK CRE luc2P hGIPR cells. It counts as cell-based. The procedure, abridged: (§1)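 Potencies are replicate means (n≥2) from non-linear log(agonist) vs response fits of CRE-driven luminescence. Cells were overnight-plated BHK CRE luc2P lines transfected with human GIPR or GLP-1R, 5000/well.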
For orientation: Reporter assays use an easily measured gene product as a stand-in for the process of interest.

Series [1] is described as follows: Pharmacokinetic study in dogs after oral dosing of tablets with SNAC. It counts as in vivo, Beagle dogs. Particulars: dog, in vivo, po; for Tmax / half-life: male, Beagle. The procedure: The purpose of this example is to determine the half-life and plasma exposure in vivo of the compounds of the present invention after p.o. administration to beagle dogs, i.e. the terminal half-life and concentration of test substance that reaches circulation with time. This is done in a pharmacokinetic (PK) study, where these parameters of the compound in question are determined. By terminal half-life is generally meant the period of time it takes to halve a certain plasma concentration, measured after the initial distribution phase.
The amount of SNAC in the tablet composition was 100-300 mg, the amount of magnesium stearate in the tablet composition was 7.7 mg, and the target amount of each test substance in the tablet composition was 3-4 mg.
Male beagle dogs, 1-7 years of age and weighing 9-17 kg during the study period, were included in the study. The dogs were dosed in a fasting state. The dogs were group housed in pens (12 hours light: 12 hours dark), and fed individually and restrictedly once daily with Royal Canin Medium Adult dog food (Royal Canin Products, China Branch, or Brogaarden A/S, Denmark). The dogs were used for repeated PK studies with a suitable wash-out period between successive dosing. An appropriate acclimatization period was given prior to initiation of the first PK study. All handling, dosing, and blood sampling of the animals were performed by trained and skilled staff. Before the studies, the dogs were fasted overnight and from 0 to 4 hours after dosing. The dogs were restricted to water 1 hour before dosing until 4 hours after dosing, but otherwise had ad libitum access to water during the whole period.
The compositions were administered by a single oral dosing to the dogs in groups of 6-8 dogs. […] The mouth was then closed, and 10 mL of tap water was given by syringe or gavage to facilitate swallowing of the tablet.
One blood sample was drawn before dosing, and additional samples were drawn at predefined time points after dosing for up to 240 hours, such as up to 10 hours, to adequately cover the full plasma concentration-time absorption profile of the test substance. For each blood sample time point, approximately 0.8 mL of whole blood was collected in a 1.5 mL EDTA-coated tube, which was gently turned to mix the sample with EDTA. Blood samples were collected in EDTA buffer (8 mM) and then centrifuged at 4° C. 2000 g for 10 minutes. Plasma was pipetted into Micronic tubes on dry ice, and kept at −20° C. or lower until analysis. Blood samples were taken as appropriate, for example from a venflon in the cephalic vein in the front leg for the first 2 hours and then with syringe from the jugular vein for the rest of the time points. The first few drops were allowed to drain from the venflon to avoid heparin saline from the venflon in the sample.
All blood samples were collected into test tubes containing EDTA for stabilisation and kept on ice until centrifugation. Plasma was separated from whole blood by centrifugation and the plasma was stored at −20° C. or lower until analysis.
The plasma was analysed for test substance using LC-MS (Liquid Chromatography-Mass Spectrometry) as known to the person skilled in the art. […] RP-HPLC separation was achieved using a linear gradient of 1:1 acetonitrile/methanol in 1% aqueous formic acid using either: a Phenomenex Onyx Monolithic C18 column (50×2.0 mm) and a flow rate of 0.8 mL/min at 30° C.; or an Agilent Poroshell 120 SB-C18 column (50×2.1 mm, 2.7 μm) at a flow rate of 0.4 mL/min at 60° C. The mass spectrometer was operated in either positive ionization SIM mode or positive ionization PRM mode.
For each individual animal, a plasma concentration-time profile was analysed by a non-compartmental model in Pharsight Phoenix WinNonLin ver.

A further series addresses human GLP-1 receptor (Homo sapiens, UniProt P43220). Description: In vitro functional potency, CRE luciferase reporter, whole BHK cells (hGLP-1R). It counts as cell-based. Details: expressed in transfected cells; host or cells: BHK (parent line BHKTS13), clone BHK CRE luc2P hGLP-1R. To be noted: BHK CRE luc2P hGLP-1R cells. Summed up:
as §1

The mark [2] stands for this setting: 0% HSA, read-out: hGIPR, CRE Luc 0% HSA EC50.
The mark [3] stands for this setting: hGIPR, CRE Luc 1% HSA EC50, 1% HSA.
[4] abbreviates: 0% HSA, read-out: hGLP-1R, CRE Luc 0% HSA EC50.
The mark [5] stands for this setting: hGLP-1R, CRE Luc 1% HSA EC50, 1% HSA.

Where two headings read alike, the source gives them in different places. Marks after values point to notes of the source that are not given here. Starred links: 1 amine or outer side, 2 acyl side, 3 side chain; linkers in the order of their positions; H or OH if unused. Non-standard residues stand in square brackets, D forms with d. Residues, ends and D or L forms follow the SMILES beside them. Groups on a side chain read outwards from the residue. *: point of attachment. C18 diacid = O=C(O)CCCCCCCCCCCCCCCCC(=O)*; γGlu = O=C(O)[C@H](CCC(=O)[*:2])N[*:1]; εLys = N[C@@H](CCCCN[*:1])C(=O)[*:2]; Aib = CC(C)(N)C(=O)O

For orientation: EC50 means the midpoint of the concentration-response curve. What is called Tmax is the time from dosing to the highest level. By half-life is commonly meant the time in which the quantity being followed falls by half. Low values mean fast loss, high ones slow loss.

human GLP-1 receptor, sequence (P43220 24-463): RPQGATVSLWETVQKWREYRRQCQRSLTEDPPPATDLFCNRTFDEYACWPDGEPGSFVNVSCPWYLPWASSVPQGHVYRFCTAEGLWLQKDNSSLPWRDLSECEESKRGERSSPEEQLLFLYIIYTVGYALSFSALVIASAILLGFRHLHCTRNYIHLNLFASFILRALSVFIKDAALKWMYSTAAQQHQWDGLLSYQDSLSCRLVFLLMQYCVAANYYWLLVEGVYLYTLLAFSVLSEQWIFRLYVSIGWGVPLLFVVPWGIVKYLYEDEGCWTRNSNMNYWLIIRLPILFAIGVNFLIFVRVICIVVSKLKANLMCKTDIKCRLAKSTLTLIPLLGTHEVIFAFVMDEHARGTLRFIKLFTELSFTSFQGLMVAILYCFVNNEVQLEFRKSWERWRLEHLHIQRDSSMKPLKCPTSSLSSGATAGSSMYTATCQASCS

For the molecule `CC[C@H](C)[C@H](NC(=O)[C@H](Cc1ccccc1)NC(=O)[C@H](CCC(=O)O)NC(=O)[C@H](CCC(N)=O)NC(=O)[C@H](C)NC(=O)[C@H](C)NC(=O)[C@H](CCC(N)=O)NC(=O)[C@H](CCCCNC(=O)[C@@H](N)CCCCNC(=O)[C@@H](N)CCCCNC(=O)CC[C@H](NC(=O)CCCCCCCCCCCCCCCCC(=O)O)C(=O)O)NC(=O)[C@H](CCC(=O)O)NC(=O)[C@H](CC(C)C)NC(=O)[C@H](CC(C)C)NC(=O)[C@@H](NC(=O)[C@H](CO)NC(=O)[C@H](Cc1ccc(O)cc1)NC(=O)[C@H](CC(=O)O)NC(=O)[C@H](CO)NC(=O)[C@@H](NC(=O)[C@H](Cc1ccccc1)NC(=O)[C@@H](NC(=O)CNC(=O)[C@H](CCC(=O)O)NC(=O)C(C)(C)NC(=O)[C@@H](N)Cc1ccc(O)cc1)[C@@H](C)O)[C@@H](C)O)[C@@H](C)CC)C(=O)N[C@@H](CC(N)=O)C(=O)N[C@@H](Cc1c[nH]c2ccccc12)C(=O)N[C@@H](CC(C)C)C(=O)N[C@@H](CC(C)C)C(=O)N[C@@H](C)C(=O)NCC(=O)NCC(=O)N1CCC[C@H]1C(=O)N[C@@H](CO)C(=O)N[C@@H](CO)C(=O)NCC(=O)N[C@@H](C)C(=O)N1CCC[C@H]1C(=O)N1CCC[C@H]1C(=O)N1CCC[C@H]1C(=O)N[C@@H](CO)C(=O)O` [Compound 24] (H-Y[Aib]EGTFTSDYSILLEK([εLys-εLys-γGlu-C18 diacid])QAAQEFINWLLAGGPSSGAPPPS-OH), the EC50 at human GIP receptor (setting [2]) amounted to 0.0039 nM. This molecule also returned an EC50 on human GIP receptor (setting [3]) of 0.115 nM. In addition, in series [1], the AUC/Dose was 16.4 kg·h/L, the Cmax/Dose is reported as 0.29 kg/L, the Tmax amounted to 1.8 h and the half-life was 74 h. For the same molecule, the EC50 on human GLP-1 receptor (setting [4]) worked out at 0.0121 nM. The EC50 on human GLP-1 receptor (setting [5]) was found to be 0.49 nM.

Take `CC[C@H](C)[C@H](NC(=O)[C@H](Cc1ccccc1)NC(=O)[C@H](CCC(=O)O)NC(=O)[C@H](CCC(=O)O)NC(=O)[C@H](C)NC(=O)[C@H](C)NC(=O)[C@H](CCC(N)=O)NC(=O)[C@H](CCCCNC(=O)[C@@H](N)CCCCNC(=O)[C@@H](N)CCCCNC(=O)CC[C@H](NC(=O)CCCCCCCCCCCCCCCCC(=O)O)C(=O)O)NC(=O)[C@H](CCC(=O)O)NC(=O)[C@H](CC(C)C)NC(=O)[C@H](CC(C)C)NC(=O)[C@@H](NC(=O)[C@H](CO)NC(=O)[C@H](Cc1ccc(O)cc1)NC(=O)[C@H](CC(=O)O)NC(=O)[C@H](CO)NC(=O)[C@@H](NC(=O)[C@H](Cc1ccccc1)NC(=O)[C@@H](NC(=O)CNC(=O)[C@H](CCC(=O)O)NC(=O)C(C)(C)NC(=O)[C@@H](N)Cc1ccc(O)cc1)[C@@H](C)O)[C@@H](C)O)[C@@H](C)CC)C(=O)N[C@@H](CC(N)=O)C(=O)N[C@@H](Cc1c[nH]c2ccccc12)C(=O)N[C@@H](CC(C)C)C(=O)N[C@@H](CC(C)C)C(=O)N[C@@H](C)C(=O)NCC(=O)NCC(=O)N1CCC[C@H]1C(=O)N[C@@H](CO)C(=O)N[C@@H](CO)C(=O)NCC(=O)N[C@@H](C)C(=O)N1CCC[C@H]1C(=O)N1CCC[C@H]1C(=O)N1CCC[C@H]1C(=O)N[C@@H](CO)C(=O)O` [Compound 25] (H-Y[Aib]EGTFTSDYSILLEK([εLys-εLys-γGlu-C18 diacid])QAAEEFINWLLAGGPSSGAPPPS-OH): the half-maximal effective concentration (EC50) on human GIP receptor (setting [2]) was 0.0072 nM. Moreover, the midpoint of the response on human GIP receptor (setting [3]), the EC50, lay at 0.263 nM. Besides, in series [1], the AUC/Dose was 15.2 kg·h/L, the Cmax/Dose is 0.30 kg/L, the Tmax was 1.8 h and the half-life is 43 h. Further, the EC50 on human GLP-1 receptor (setting [4]) was 0.0155 nM. Moreover, the EC50 on human GLP-1 receptor (setting [5]) worked out at 0.74 nM.

For the molecule `CC[C@H](C)[C@H](NC(=O)[C@H](Cc1ccccc1)NC(=O)[C@H](CCC(=O)O)NC(=O)[C@H](Cc1c[nH]cn1)NC(=O)[C@H](C)NC(=O)[C@H](C)NC(=O)[C@H](CCC(N)=O)NC(=O)[C@H](CCCCNC(=O)[C@@H](N)CCCCNC(=O)[C@@H](N)CCCCNC(=O)CC[C@H](NC(=O)CCCCCCCCCCCCCCCCC(=O)O)C(=O)O)NC(=O)[C@H](CCC(=O)O)NC(=O)[C@H](CC(C)C)NC(=O)[C@H](CC(C)C)NC(=O)[C@@H](NC(=O)[C@H](CO)NC(=O)[C@H](Cc1ccc(O)cc1)NC(=O)[C@H](CC(=O)O)NC(=O)[C@H](CO)NC(=O)[C@@H](NC(=O)[C@H](Cc1ccccc1)NC(=O)[C@@H](NC(=O)CNC(=O)[C@H](CCC(=O)O)NC(=O)C(C)(C)NC(=O)[C@@H](N)Cc1ccc(O)cc1)[C@@H](C)O)[C@@H](C)O)[C@@H](C)CC)C(=O)N[C@@H](CC(N)=O)C(=O)N[C@@H](Cc1c[nH]c2ccccc12)C(=O)N[C@@H](CC(C)C)C(=O)N[C@@H](CC(C)C)C(=O)N[C@@H](C)C(=O)NCC(=O)NCC(=O)N1CCC[C@H]1C(=O)N[C@@H](CO)C(=O)N[C@@H](CO)C(=O)NCC(=O)N[C@@H](C)C(=O)N1CCC[C@H]1C(=O)N1CCC[C@H]1C(=O)N1CCC[C@H]1C(=O)N[C@@H](CO)C(=O)O` [Compound 26] (H-Y[Aib]EGTFTSDYSILLEK([εLys-εLys-γGlu-C18 diacid])QAAHEFINWLLAGGPSSGAPPPS-OH), at human GIP receptor (setting [2]), the EC50 was determined as 0.0049 nM. This molecule displayed an EC50 on human GIP receptor (setting [3]) of 0.153 nM. Further, in series [1], the AUC/Dose is listed as 27.4* kg * h/L, the Cmax/Dose was 0.49* kg/L, the Tmax worked out at 1.2 h and the half-life is 70 h. Also, on human GLP-1 receptor (setting [4]), the EC50 was found to be 0.0074 nM. Besides, the EC50 at human GLP-1 receptor (setting [5]) worked out at 0.595 nM.
